For one compound, Activity results are on record in ChEMBL document CHEMBL1156414, “Safety and activity of the immune modulator HE2000 on the incidence of tuberculosis and other opportunistic infections in AIDS patients” (2007).

Each structure is given as a SMILES string. Calls of active or inactive are those of the source. The calls are words filed in the database; no cut-off is given here.

The subject of one assay is Homo sapiens. In words: Reduction in cumulative incidence of opportunistic infections in AIDS patient at 100 mg administered intramuscularly once daily for 5 days. The format is functional, organism-based.
Assay [1] deals with Mycobacterium tuberculosis. Kind of assay: Reduction in incidence of Mycobacterium tuberculosis coinfection in AIDS patient at 100 mg administered intramuscularly once daily for 5 days. The class given is functional. Set-up: scale not given: the % may be the effect or the level left.
Assay [2] relates to Mycobacterium tuberculosis. In words: Reduction in incidence of Mycobacterium tuberculosis coinfection in AIDS patient at 100 mg administered intramuscularly once daily for 5 days measured 140 days postdose. The format is functional, organism-based.

On to `C[C@]12CC[C@H](O)C[C@@H]1CC[C@@H]1[C@@H]2CC[C@]2(C)C(=O)[C@H](Br)C[C@@H]12` [16.ALPHA.-BROMOEPIANDROSTERONE], for which the outcome (with Homo sapiens; in assay [2]) was Active. The Activity in assay [1] was determined as 42.2%.
